Measurements as given in US8198456B2, “Dihydropyridine derivatives as useful as protein kinase inhibitors” (Bayer Intellectual Property GmbH, priority 2006, dated 2012).
Where a name gives a salt, the structure may show the parent alone.

Biological target: T1, recombinant human c-MET kinase enzyme domain (Homo sapiens, UniProt P08581)
T1 construct: Recombinant c-Met kinase domain (amino acids 960-1390); His (N); made in house; host or cells: baculovirus expression system (insect cells; SF21 is named only for the alternative format)
Assay: c-MET receptor tyrosine kinase Homogeneous Time Resolved Fluorescence assay (HTRF)
Type: biochemical
Conditions: Biological Example 1 and/or Biological Example 2
Source text: Recombinant c-Met kinase domain (amino acids 960-1390) was produced in a baculovirus expression vector as an N-terminal His-tagged fusion protein and purified on a NiNTA column. The resulting purified enzyme was then used in the following c-Met Homogeneous Time Resolved Fluorescence assay (HTRF) to find compounds of the invention and to perform initial activity determinations. Specifically, this assay measures the ability of compounds of the invention to inhibit the phosphorylation of a randomly synthesized, biotinylated heterocopolymeric polypeptide composed of glutamic acid and tyrosine, with an average length of 100 aa. The assay analyzes the amount of phosphorylated polypeptide produced.
The enzymatic phosphorylation of the biotinylated heterocopolymeric polypeptide was performed in a black 384-well plate at ambient temperature in a reaction mixture containing 50 mM HEPES (pH 7.4), 5 mM MgCl2, 5 mM MnCl2, 0.01% Tween-20, and 2 mM DTT, […] recombinant human c-MET kinase enzyme domain, 37 nM biotinylated heterocopolymeric polypeptide composed of glutamic acid and tyrosine, 20 μM ATP, 1% DMSO in the absence or presence of a compound of the invention. The reaction was stopped after a 20-minute incubation by the addition of 80 mM EDTA.
The formation of phosphorylated heterocopolymeric, biotinylated polypeptide was quantified with the HTRF assay technology using an anti-phosphotyrosine antibody, PT66, conjugated to europium cryptate, mixed with a streptavidin-XL665 conjugate. Reduced or inhibited phosphorylation of the heterocopolymeric, biotinylated polypeptide prevents the anti-phosphotyrosine antibody from binding to the peptide, resulting in a loss of energy transfer to the streptavidin-XL665 conjugate.
Following the 384-well enzymatic phosphorylation reaction outlined above, the detection of phosphorylated heterocopolymeric, biotinylated polypeptide was performed by dilution of the stopped reaction mixture 2-fold with 50 mM HEPES (pH 7.0), 500 mM KF, 0.1% BSA, streptavidin-XL665 (20 nM), and anti-phosphotyrosine antibody PT66-crypate conjugate (6.4 ng/well) and incubation for four hours at ambient temperature. Plates were read in an Envision plate reader (PerkinElmer Life and Analytical Sciences, Inc., MA) simultaneously at 620 nm and 665 nm to obtain signal ratios of 665 nm/620 nm. Results of energy transfer were expressed as signal ratios of 665 nm/620 nm. Negative controls were samples without recombinant c-MET or c-MET treated with 100 mM EDTA.
For determination of IC50 values of particular compounds of the invention, eight serially diluted compound concentrations (at 1:3.16 dilution) were used in the assay. Controls without a compound of the invention or with a reference compound were run in parallel in the same assay plate.

T1 sequence (P08581 960-1390): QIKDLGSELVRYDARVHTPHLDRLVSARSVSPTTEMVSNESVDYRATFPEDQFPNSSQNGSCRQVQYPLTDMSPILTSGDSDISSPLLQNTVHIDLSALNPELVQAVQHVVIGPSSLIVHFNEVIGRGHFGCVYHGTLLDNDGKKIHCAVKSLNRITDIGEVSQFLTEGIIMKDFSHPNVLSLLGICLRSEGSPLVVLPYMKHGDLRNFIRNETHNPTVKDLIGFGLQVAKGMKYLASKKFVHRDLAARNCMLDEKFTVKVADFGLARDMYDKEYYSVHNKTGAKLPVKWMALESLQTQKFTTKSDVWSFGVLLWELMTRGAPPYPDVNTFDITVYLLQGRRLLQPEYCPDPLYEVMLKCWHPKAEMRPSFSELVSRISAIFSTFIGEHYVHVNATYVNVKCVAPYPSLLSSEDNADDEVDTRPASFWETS

IC50	Compound
< 100 nM	CC1=C(C#N)C(c2ccc3[nH]nc(-c4ccncc4)c3c2)C(C#N)=C(C)N1 [94.2, 1,4-dihydro-2,6-dimethyl-4-[3-(4-pyridinyl)-1H-indazol-5-yl]-3,5-pyridinedicarbonitrile, acetic acid salt]
< 100 nM	CNC(=O)c1n[nH]c2ccc(C3C(C#N)=C(C)NC(C)=C3C#N)cc12 [99.1, 5-(3,5-dicyano-1,4-dihydro-2,6-dimethyl-4-pyridinyl)-N-methyl-1H-indazole-3-carboxamide, TFA salt]
< 100 nM	CC1=C(C#N)C(c2ccc3[nH]nc(C(=O)NCCN(C)C)c3c2)C(C#N)=C(C)N1 [103.1, 5-(3,5-dicyano-1,4-dihydro-2,6-dimethyl-4-pyridinyl)-N-[2-(dimethylamino)-ethyl]-1H-indazole-3-carboxamide, TFA salt]
< 100 nM	CC1=C(C#N)C(c2ccc3[nH]nc(C(=O)NCCCN(C)C)c3c2)C(C#N)=C(C)N1 [106.1, 5-(3,5-dicyano-2,6-dimethyl-1,4-dihydro-pyridin-4-yl)-1H-indazole-3-carboxylic acid (3-dimethylamino-propyl)-amide, TFA salt]
< 100 nM	CC1=C(C#N)C(c2ccc3[nH]nc(C(=O)N(C)C)c3c2)C(C#N)=C(C)N1 [114.1, 5-(3,5-dicyano-2,6-dimethyl-1,4-dihydro-pyridin-4-yl)-1H-indazole-3-carboxylic acid dimethylamide, TFA salt]
< 100 nM	CCCN1CCN(c2n[nH]c3ccc(C4C(C#N)=C(C)NC(C)=C4C#N)cc23)CC1 [165.1, 2,6-dimethyl-4-[3-(4-propyl-piperazin-1-yl)-1H-indazol-5-yl]-1,4-dihydropyridine-3,5-dicarbonitrile, TFA salt]
< 100 nM	CCOC(=O)N1CCN(Cc2n[nH]c3ccc(C4C(C#N)=C(C)NC(C)=C4C#N)cc23)CC1 [167.1, 4-[5-(3,5-Dicyano-2,6-dimethyl-1,4-dihydro-pyridin-4-yl)-1H-indazol-3-ylmethyl]-piperazine-1-carboxylic acid ethyl ester, TFA salt]
100 to 500 nM	COC(=O)c1cccc(C2C(C#N)=C(C)NC(C)=C2C#N)c1 [compound 10, 3-(3,5-dicyano-1,4-dihydro-2,6-dimethyl-4-pyridinyl)-benzoic acid, methyl ester]
500 to 2500 nM	CNC(=O)c1cccc(C2C(C#N)=C(C)NC(C)=C2C#N)c1 [compound 12, 3-(3,5-dicyano-2,6-dimethyl-1,4-dihydro-pyridin-4-yl)-N-methyl-benzamide, TFA salt]
500 to 2500 nM	CC1=C(C#N)C(c2cccc(C(N)=O)c2)C(C#N)=C(C)N1 [compound 17, 3-(3,5-dicyano-1,4-dihydro-2,6-dimethyl-4-pyridinyl)-benzamide]
100 to 500 nM	CC1=C(C#N)C(c2cccc(C(=O)Nc3cccnc3)c2)C(C#N)=C(C)N1 [compound 21, 3-(3,5-dicyano-1,4-dihydro-2,6-dimethyl-4-pyridinyl)-N-3-pyridinyl-benzamide]
100 to 500 nM	CNC(=O)c1cccc(C2C(C#N)=C(C)NC(C)=C2C#N)c1 [compound 22, 3-(3,5-dicyano-1,4-dihydro-2,6-dimethyl-4-pyridinyl)-N-methyl-benzamide]
500 to 2500 nM	CC1=C(C#N)C(c2cccc(C(=O)NCCc3ccncc3)c2)C(C#N)=C(C)N1 [compound 23, 3-(3,5-dicyano-1,4-dihydro-2,6-dimethyl-4-pyridinyl)-N-[2-(4-pyridinyl)ethyl]-benzamide]
100 to 500 nM	CC1=C(C#N)C(c2cccc(C(=O)NCCC3CCNCC3)c2)C(C#N)=C(C)N1 [compound 26, 3-(3,5-dicyano-1,4-dihydro-2,6-dimethyl-4-pyridinyl)-N-[2-(4-piperidinyl)ethyl]-benzamide]
500 to 2500 nM	CC(=O)Nc1cccc(C2C(C#N)=C(C)NC(C)=C2C#N)c1 [compound 27, N-[3-(3,5-dicyano-1,4-dihydro-2,6-dimethyl-4-pyridinyl)phenyl]-acetamide]
100 to 500 nM	CC1=C(C#N)C(c2cccc(C(=O)NCCCn3ccnc3)c2)C(C#N)=C(C)N1 [compound 32, 3-(3,5-dicyano-1,4-dihydro-2,6-dimethyl-4-pyridinyl)-N-[3-(1H-imidazol-1-yl)propyl]-benzamide]

IC50	Compound
500 to 2500 nM	COC(=O)Nc1cccc(C2C(C#N)=C(C)NC(C)=C2C#N)c1 [compound 34, [3-(3,5-dicyano-1,4-dihydro-2,6-dimethyl-4-pyridinyl)phenyl]-carbamic acid, methyl ester]
500 to 2500 nM	CC1=C(C#N)C(c2cccc(NC(=O)c3cccnc3)c2)C(C#N)=C(C)N1 [compound 38, N-[3-(3,5-dicyano-1,4-dihydro-2,6-dimethyl-4-pyridinyl)phenyl]-3-pyridinecarboxamide]
< 100 nM	CC1=C(C#N)C(c2cccc(C(=O)Nc3ccccn3)c2)C(C#N)=C(C)N1 [compound 43, 3-(3,5-dicyano-1,4-dihydro-2,6-dimethyl-4-pyridinyl)-N-2-pyridinyl-benzamide]
500 to 2500 nM	CCOCCCNC(=O)c1cccc(C2C(C#N)=C(C)NC(C)=C2C#N)c1 [compound 45, 3-(3,5-dicyano-1,4-dihydro-2,6-dimethyl-4-pyridinyl)-N-(3-ethoxypropyl)-benzamide]
500 to 2500 nM	CC1=C(C#N)C(c2cccc(NC(=O)CBr)c2)C(C#N)=C(C)N1 [compound 47, 2-bromo-N-[3-(3,5-dicyano-1,4-dihydro-2,6-dimethyl-4-pyridinyl)phenyl]-acetamide]
100 to 500 nM	CC1=C(C#N)C(c2cccc(C(=O)Nc3ccc(C)cn3)c2)C(C#N)=C(C)N1 [compound 51, 3-(3,5-dicyano-1,4-dihydro-2,6-dimethyl-4-pyridinyl)-N-(5-methyl-2-pyridinyl)-benzamide]
500 to 2500 nM	CC1=C(C#N)C(c2cccc(NC(=O)c3ccncc3)c2)C(C#N)=C(C)N1 [compound 57, N-[3-(3,5-dicyano-1,4-dihydro-2,6-dimethyl-4-pyridinyl)phenyl]-4-pyridinecarboxamide]
100 to 500 nM	CC1=C(C#N)C(c2cccc(NC(=O)c3ccccn3)c2)C(C#N)=C(C)N1 [compound 58, N-[3-(3,5-dicyano-1,4-dihydro-2,6-dimethyl-4-pyridinyl)phenyl]-2-pyridinecarboxamide]
500 to 2500 nM	CC1=C(C#N)C(c2cccc(C(=O)Nc3ccc(C(F)(F)F)cn3)c2)C(C#N)=C(C)N1 [compound 60, 3-(3,5-dicyano-1,4-dihydro-2,6-dimethyl-4-pyridinyl)-N-[5-(trifluoromethyl)-2-pyridinyl]-benzamide]
100 to 500 nM	CC1=C(C#N)C(c2cccc(C(=O)Nc3nccs3)c2)C(C#N)=C(C)N1 [compound 61, 3-(3,5-dicyano-1,4-dihydro-2,6-dimethyl-4-pyridinyl)-N-2-thiazolyl-benzamide]
500 to 2500 nM	CC1=C(C#N)C(c2cccc(C(=O)Nc3cccc(C)n3)c2)C(C#N)=C(C)N1 [compound 62, 3-(3,5-dicyano-1,4-dihydro-2,6-dimethyl-4-pyridinyl)-N-(6-methyl-2-pyridinyl)-benzamide]
100 to 500 nM	CC1=C(C#N)C(c2cccc(C(=O)Nc3ccc(N(C)C)cn3)c2)C(C#N)=C(C)N1 [compound 63, 3-(3,5-dicyano-1,4-dihydro-2,6-dimethyl-4-pyridinyl)-N-[5-(dimethylamino)-2-pyridinyl]-benzamide]
100 to 500 nM	CC1=C(C#N)C(c2cccc(NC(=O)c3ncc[nH]3)c2)C(C#N)=C(C)N1 [compound 65, N-[3-(3,5-dicyano-1,4-dihydro-2,6-dimethyl-4-pyridinyl)phenyl]-1H-imidazole-2-carboxamide]
100 to 500 nM	CC1=C(C#N)C(c2cccc(NC(=O)c3cnc[nH]3)c2)C(C#N)=C(C)N1 [compound 66, N-[3-(3,5-dicyano-1,4-dihydro-2,6-dimethyl-4-pyridinyl)phenyl]-1H-imidazole-5-carboxamide]
100 to 500 nM	CC1=C(C#N)C(c2cccc(C(=O)Nc3cccc(N)n3)c2)C(C#N)=C(C)N1 [compound 68, N-(6-amino-2-pyridinyl)-3-(3,5-dicyano-1,4-dihydro-2,6-dimethyl-4-pyridinyl)-benzamide]
100 to 500 nM	CC1=C(C#N)C(c2cccc(C(=O)Nc3ccc(CO)cn3)c2)C(C#N)=C(C)N1 [compound 72, 3-(3,5-dicyano-1,4-dihydro-2,6-dimethyl-4-pyridinyl)-N-[5-(hydroxymethyl)-2-pyridinyl]-benzamide]
